Measurements as given in patent publication US20060110385A1, “Means and methods for diagnosing and treating affective disorders” (Affectis Pharmaceuticals AG, priority 2003, published 2006).

Key:
P2X7R [1] = biological target: T1, P2X7R (Mus musculus, UniProt Q9Z1M0); experiment: Calcium influx into HT-22 cells (Oregon green AM ester); type: cell-based; conditions: 100 mM oATP for 1 hour before BzATP
T1 construct: endogenous in cells; host or cells: HT-22 (immortalised mouse hippocampal cell line)
T1 sequence (Q9Z1M0 1-595): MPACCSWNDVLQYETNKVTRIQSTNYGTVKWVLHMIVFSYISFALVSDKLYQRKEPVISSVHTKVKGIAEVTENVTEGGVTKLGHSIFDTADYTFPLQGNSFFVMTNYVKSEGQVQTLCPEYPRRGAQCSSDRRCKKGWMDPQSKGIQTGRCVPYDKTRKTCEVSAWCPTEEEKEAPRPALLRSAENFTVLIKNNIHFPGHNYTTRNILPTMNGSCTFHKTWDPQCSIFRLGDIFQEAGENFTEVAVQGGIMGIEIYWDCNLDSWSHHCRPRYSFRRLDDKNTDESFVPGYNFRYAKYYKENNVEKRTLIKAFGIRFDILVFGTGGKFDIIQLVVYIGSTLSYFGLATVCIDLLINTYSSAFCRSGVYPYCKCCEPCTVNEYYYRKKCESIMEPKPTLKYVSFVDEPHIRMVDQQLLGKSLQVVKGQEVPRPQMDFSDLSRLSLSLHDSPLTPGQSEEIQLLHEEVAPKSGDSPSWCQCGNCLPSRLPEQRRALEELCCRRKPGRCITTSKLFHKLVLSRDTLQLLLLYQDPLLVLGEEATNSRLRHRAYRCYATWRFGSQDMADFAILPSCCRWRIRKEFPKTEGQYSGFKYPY
Source text: Since P2X7R is an ATP-gated ion channel which allows the entry of calcium and sodium ions into cells, a method for identifying P2X7R agonist was established by monitoring calcium influx into HT-22 cells. […] Calcium movement into the cells was visualised under a fluorescent microscope with a fluorescein filter (wavelength 492/517 nm). Oregon green AM ester is a fluorescent dye that binds to intracellular calcium.
Activation of P2X7R by the agonist was inhibited by oATP (FIG. 18) as illustrated by the absence of green fluorescence in the cells.

P2X7R [2] = biological target: T1, P2X7R; experiment: Entry of ethidium bromide into HT-22 cells; type: cell-based; conditions: pre-incubation 60 minutes with 100 μM o-ATP before agonist and ethidium bromide
Source text: Yet another method of measuring P2X7R activity involves the entry of ethidium bromide into P2X7R expressing cells. Activation of P2X7R by an agonist allows the entry of ethidium bromide which binds nuclear DNA and emits a fluorescence signal. Alternatively, the propidium dye YOPRO-1 can be substituted for ethidium bromide. An increase in fluorescence can be used as a measure of P2X7 receptor activation. Therefore, the assay can be used to test and quantify the effect of an agent or compound with agonist properties on P2X7R. In the present example, 10^3 HT-22 cells were seeded per well in a 96-well flat bottom microtitre plates and incubated at 37° C./5% CO2 in DMEM medium containing 10% FCS until the cells attached to the culture surface. […] The number of fluorescent cells which have integrated the ethidium bromide to the DNA can then be counted using a fluorescent microscope (Zeiss, Germany). […] Alternatively, ethidium bromide fluorescence can be measured using a Perkin-Elmer fluorescent plate reader (excitation 520 nm, emission 595 nm, slit widths: Ex 15 nm, Em 20 nm). From the readings obtained, a pIC50 figure can be calculated for each candidate agent or compound. […] The specificity of an agonist for P2X7R can be evaluated by pre-incubation of the cells for 60 minutes with 100 μM o-ATP before adding the agonist and ethidium bromide dye.

DBA/201a mice = experiment: Porsolt's forced swim test after intrahippocampal P2X7R antagonists; type: in vivo, mouse; conditions: 100 nM KN-62 or 10 μM oATP, 1 μl each side, dentate gyrus, 24 hours after injection
Source text: In the present example, the P2X7R antagonists were directly injected into the dentate gyrus region of the hippocampus. Briefly, three months old male mice were bilaterally implanted with guide cannulae (23 gauge, length 8 mm) by means of a stereotactic instrument (David Kopf Instruments). The coordinates, in relation to bregma, were −1.5 mm posterior, ±1.0 mm lateral, and −0.8 mm ventral. Mice were allowed to recover for 10 to 13 days after surgery. Following this recovery period, mice were injected with 1 μl vehicle solution (0.01% DMSO, Sigma), or 100 nM KN-62 (Sigma, prepared in 0.01% DMSO), or 10 μM oATP (Sigma, prepared in PBS) in each side of the brain over a period of 60 seconds. All injections were performed using a 9 mm-31 gauge needle inserted into the guide cannulae and connected via tubing to a 10 μl Hamilton syringe.
The behaviour of individual mice was assessed using the Porsolt's forced swim test 24 hours after injection of vehicle solution, KN-62, or oATP. A pre-exposure of 5 minutes to the test was performed 15-17 minutes after administration of vehicle, KN-62, or oATP. A description of the Porsolt's forced swim test is given in example 9. […] Observed results were verified statistically using one-way MANOVA test.

mice = experiment: Open field test (locomotor activity) after oATP; type: in vivo, mouse; conditions: 10 μM or 50 μM oATP, 15 minutes after injection, 30 minutes
Protocol: Locomotor activity in mice treated with control vehicle solution, 10 μM oATP, or 50 μM oATP was assessed 15 minutes after injection by placing individual animal in a dark-grey wooden box (30×30×40 cm). Locomotor activity was monitored for a period of 30 minutes using a video camera. Overall distance travelled by the animals during the testing period was then analysed by means of VideoMot2 computer software (TSE GmbH, Bad Homburg).

In the case of `Nc1ncnc2c1ncn2[C@@H](C=O)O[C@@H](C=O)COP(=O)(O)OP(=O)(O)OP(=O)(O)O` [oATP, Oxidized ATP], the “activation of P2X7R by the agonist (calcium influx) after antagonist pre-treatment” value (P2X7R [1]) was “inhibited”, the “number of fluorescent cells after antagonist pre-incubation” value (P2X7R [2]) was “reduction in the number of fluorescent cells” and the “active escape attempts (time, frequency, latency of struggling)” value (DBA/201a mice) was “no changes”. The “passive behaviour (time, frequency, latency of floating)” value (DBA/201a mice) was “no changes” and the “locomotor activity (overall distance travelled)” value (mice) was “No difference in locomotor activity”.
